Where two headings read alike, the source gives them in different places.
Legend:
[1] = Oral and IV tracer PK and absolute bioavailability (part B); format: in vivo, human healthy male volunteers; conditions: for bioavailability: 500 mg; for tlag / tmax: median (min–max)
Method: Participants were hospitalized from day 1 to day 7 of the study, and further assessed on days 9, 11, and 14 (study end).
In brief, the isotopically labeled internal standard [^2H]-MSC2156119A was added to 20 μL K2-ethylenediaminetetraacetic acid (EDTA) plasma. […] Samples were centrifuged and 10 μL aliquots of the supernatant were injected onto an Acquity Charged Surface Hybrid™ (CSH) C18 column (2.1 × 50 mm; […]; Waters, Milford, Massachusetts, USA). Separation was carried out using a mobile phase gradient (eluent A: water/formic acid [100 + 1, v/v]; eluent B: acetonitrile/formic acid [100 + 1, v/v]) with a flow rate of 0.6 mL/min. […] The lower limit of quantification (LLOQ) was 5.00 ng/mL, and the calibration standard responses were linear over the range between 5.00 and 2500 ng/mL using a weighted (1/x^2) linear regression.
The accelerator mass spectrometry (AMS) analysis of [^14C]-tepotinib in plasma samples in part B of the trial was performed by Eckert & Ziegler Vitalea Science (Davis, California, USA) using a validated method that involves isolation of the analyte by ultra-high-performance liquid chromatography (UPLC) fractionation, followed by the quantification of the ^14C content in collected fractions using AMS [26]. […] Following protein precipitation and further chemical steps, 50 μL of the reconstituted extracts were injected onto a Waters Acquity UPLC instrument equipped with a CSH fluoro-phenyl analytical column (3.0 × 100 mm; 1.7 μm; Waters, Milford, Massachusetts, USA) and an ethylene bridged hybrid C18 (2.1 × 5 mm; 1.7 μm; Waters, Milford, Massachusetts, USA) pre-column. Separation of [^14C]-tepotinib from potentially interfering metabolites or degradants that may have been present in the study samples was carried out using a mobile phase gradient (eluent A: 5 mM ammonium acetate in water; eluent B: acetonitrile) with a flow rate of 0.75 mL/min. […] Samples were then introduced into the BioMICADAS AMS instrument (PSI/ETH, Zurich, Switzerland). The LLOQ was 0.0883 pg/mL.
The maximum plasma concentration (Cmax) and time to reach maximum concentration (tmax) were derived directly from the plasma concentration–time data. Lag time (tlag) was the time prior to the first measurable (non-zero) concentration. The area under the plasma concentration–time curve from 0 to t (last measurable concentration; AUC0–t) was calculated using a mixed log–linear trapezoidal method. Area under the plasma concentration–time curve until the last sampling time (AUCall), which corresponds to AUC0–240 h within the observation period, was used for metabolite calculations. Amounts excreted in urine, feces, and total (urine + feces) were calculated as the sum of amounts (concentration multiplied by volume) for each collection from time 0 to time t. The terminal rate constant (λz) was used to estimate the terminal half-life (t½) (ln 2/λz), and the area under the concentration–time curve from time 0 to infinity (AUC0–∞). Total body clearance (CL) and apparent body clearance (CL/f) were determined by dose/AUC0–∞, and total volume of distribution (Vz) and apparent volume of distribution (Vz/f) were calculated by dose/(AUC0–∞*λz) after IV and oral administration, respectively. Volume of distribution of the central compartment (Vc) was derived by dividing the dose by the initial drug plasma concentration after IV administration. Absolute bioavailability was calculated as F = (AUCoral/doseoral)/(AUCIV/doseIV) × 100. The ratios (%) AUCtepotinib or metabolite/AUCtotal radioactivity were calculated as a percentage of the molar AUCs.

P-glycoprotein = system: P-glycoprotein; set-up: method as in earlier work; conditions: cited from earlier work
[2] = Safety assessment (TEAEs, NCI-CTCAE v4.0); format: in vivo, human healthy male volunteers
Method: Treatment-emergent adverse events (TEAEs), changes in laboratory tests, ECG, vital signs, and physical examinations were assessed and graded using the National Cancer Institute Common Terminology Criteria for Adverse Events (NCI-CTCAE) version 4.0. All safety endpoints across both parts of the study were analyzed descriptively.

[3] = single oral 500 mg tablet, geometric mean (geometric CV%), min–max
[4] = single oral 500 mg tablet, listed as tepotinib

**Q.** With CN1CCC(COc2cnc(-c3cccc(Cn4nc(-c5cccc(C#N)c5)ccc4=O)c3)nc2)CC1 [Tepotinib] as the molecule, how does the “absolute bioavailability, inter-individual variability (geometric CV)” value ([1]; 500 mg tablet vs IV tracer, n=6) read?
**A.** 10.8%

**Q.** And the Vc ([1]; IV tracer, geometric mean (geometric CV%), min–max)?
**A.** 34.6 L

**Q.** What about the t½ ([1]; IV tracer, geometric mean (geometric CV%), min–max, plasma) of the same molecule?
**A.** 31.2 h

**Q.** And the bioavailability ([1]; male, human, in vivo, geometric mean, 500 mg phase II tablet formulation vs IV tracer, n=6, read-out: absolute bioavailability)?
**A.** 72%

**Q.** And the bioavailability ([1]; male, human, in vivo, range, 500 mg tablet vs IV tracer, n=6, read-out: absolute bioavailability, range)?
**A.** 62 to 81%

**Q.** What about the clearance ([1]; male, human, in vivo, IV tracer, geometric mean (geometric CV%), min–max) of the same molecule?
**A.** 213 mL/min

**Q.** And the Vd ([1]; male, human, in vivo, IV tracer, geometric mean (geometric CV%), min–max, read-out: Vz)?
**A.** 574 L

**Q.** And the Vd/F ([1]; male, human, in vivo, single oral 500 mg tablet, geometric mean (geometric CV%), min–max, read-out: Vz/f)?
**A.** 726 L

**Q.** And the half-life ([1]; male, human, in vivo, summary statement in the discussion)?
**A.** 30 h

**Q.** And the CL/f [1, 3]?
**A.** 17.8 L/h

**Q.** And the t½ [1, 3]?
**A.** 28.3 h

**Q.** What about the tlag ([1]; single oral 500 mg tablet) of the same molecule?
**A.** 0.52 (0.25–2.0) Hours

**Q.** And the tmax ([1]; single oral 500 mg tablet)?
**A.** 10.0 (3.0–10.0) Hours

**Q.** And the tlag [1, 4]?
**A.** 0.5 h

**Q.** What about the tmax [1, 4] of the same molecule?
**A.** 10 h

**Q.** What about the P-glycoprotein substrate status (P-glycoprotein) of the same molecule?
**A.** substrate of the drug efflux transporter P-glycoprotein

**Q.** What about the “number of TEAEs of grade one severity” value ([2]; NCI-CTCAE, of 19 TEAEs) of the same molecule?
**A.** 17

**Q.** What about the “deaths, serious or other significant adverse events” value ([2]; both parts) of the same molecule?
**A.** neither deaths, serious adverse events, nor other significant adverse events were reported

**Q.** What about the “volunteers who experienced TEAEs” value ([2]; both parts, single 500 mg dose) of the same molecule?
**A.** 75%

**Q.** And the “healthy volunteers who experienced TEAEs” value ([2]; both parts, single oral 500 mg)?
**A.** Nine of 12

**Q.** And the “number of TEAEs” value ([2]; in nine of 12 volunteers)?
**A.** 19

**Q.** And the “number of TEAEs judged treatment related” value ([2]; of 19 TEAEs)?
**A.** Eight

**Q.** And the tolerability ([2]; single oral dose of 500 mg, healthy volunteers)?
**A.** well tolerated

Reference: paper PMC7497692 (Investigational New Drugs, 2020)
